Laboratory results taken from patent US20090068243A1, “Novel formulations for delivery of antiviral peptide therapeutics” (priority 2007, published 2009).

Columns and labels:
584.000060 = system: 584.000060
Excerpt: (§1) Assessment of biological properties included measurement of antiviral activity against HIV-1 strains. […] These assays score for reduction of infectious virus titer employing the indicator cell lines MAGI or the CCR5 expressing derivative cMAGI. Both cell lines exploit the ability of HIV-1 tat to transactivate the expression of a β-galactosidase reporter gene driven by the HIV-LTR. The β-gal reporter has been modified to localize in the nucleus and can be detected with the X-gal substrate as intense nuclear staining within a few days of infection. The number of stained nuclei can thus be interpreted as equal to the number of infectious virions in the challenge inoculum if there is only one round of infection prior to staining. […] In the MAGI and cMAGI assays, a 50% reduction in infectious titer (Vn/Vo=0.5) is significant, and provides the primary cutoff value for assessing antiviral activity (“IC50” is defined as the concentration of active ingredient resulting in a 50% reduction in infectious virus titer). […] The peptide (in the respective dilution) was added to the cMAGI or MAGI cells, followed by the virus inocula; and 24 hours later, an inhibitor of infection and cell-cell fusion (e.g., SEQ ID NO:2 (enfuvirtide)) was added to prevent secondary rounds of HIV infection and cell-cell virus spread. The cells were cultured for 2 more days, and then fixed and stained with the X-gal substrate to detect HIV-infected cells. The number of infected cells for each control and peptide dilution was determined with the CCD-imager, and then the IC50 was calculated (expressed in μg/ml).
(§2) In particular, in vitro resistance comparison studies were performed between the novel SEQ ID NO:9 compound of interest and established antiviral agent SEQ ID NO:2, described in detail as follows: MT2 cells were infected with virus isolates (IIIB, 030, 060 and 098) and cultured in increasing concentrations of SEQ ID NO:2 (enfuvirtide) or SEQ ID NO:9 to select for resistance. The initial peptide concentration was approximately 2 times the IC50 of each peptide against the corresponding wild type isolate. Peptide concentrations were maintained by adding fresh peptide every 1-3 days. Cultures were monitored for cytopathic effect (CPE) using standard techniques and when maximal CPE was achieved, a small aliquot of virus was used for subsequent rounds of infection. Peptide concentrations were increased 2 to 4-fold depending on the length of time in culture when compared to the growth rate of wild type virus. During the course of selection, peptide-free virus stocks were also collected. Peptide-free virus stocks were characterized for gp41 genotypic changes by dideoxy sequencing chemistries and phenotypic susceptibility was determined using a cMAGI infectivity assay.

584.000030 = system: 584.000030
Excerpt: as §1, §2

[1] = system: virus isolates (IIIB, 030, 060 and 098)
Excerpt: as §1, §2

584.000098 = system: 584.000098
Excerpt: as §1, §2

IIIB = conditions: starting virus isolate IIIB
Excerpt: as §1, §2

HIV-IIIB = conditions: 50% reduction in infectious virus titer
Excerpt: Assessment of biological properties included measurement of antiviral activity against HIV-1 strains. […] These assays score for reduction of infectious virus titer employing the indicator cell lines MAGI or the CCR5 expressing derivative cMAGI. Both cell lines exploit the ability of HIV-1 tat to transactivate the expression of a β-galactosidase reporter gene driven by the HIV-LTR. The β-gal reporter has been modified to localize in the nucleus and can be detected with the X-gal substrate as intense nuclear staining within a few days of infection. The number of stained nuclei can thus be interpreted as equal to the number of infectious virions in the challenge inoculum if there is only one round of infection prior to staining. […] In the MAGI and cMAGI assays, a 50% reduction in infectious titer (Vn/Vo=0.5) is significant, and provides the primary cutoff value for assessing antiviral activity (“IC50” is defined as the concentration of active ingredient resulting in a 50% reduction in infectious virus titer). […] The number of infected cells for each control and peptide dilution was determined with the CCD-imager, and then the IC50 was calculated (expressed in μg/ml).

[2] = Intravenous pharmacokinetics in cynomolgus monkeys; assay type: in vivo, cynomolgus monkeys (Macaca fasicularis)
Procedure: For determining pharmacokinetic properties, an HIV fusion inhibitor peptide or a base sequence from which an HIV fusion inhibitor peptide is derived was dosed intravenously in cynomolgus monkeys (Macaca fasicularis) (other animal models may be used for determining pharmacokinetic properties, as known in the art). At various times post-dose, blood samples were drawn and plasma isolated by centrifugation. Plasma samples were stored frozen until analysis by LC-MS (liquid chromatography/mass spectrometry) in the electrospray, positive-ion mode. An HIV fusion inhibitor or base sequence was eluted from a C18 or C8 HPLC column with a gradient of acetonitrile in a buffer of 10 mM ammonium acetate, pH 6.8. At the time of analysis, plasma samples were deproteinated with either two or three volumes of acetonitrile containing 0.5% formic acid. Duplicate calibration standards in cynomolgus plasma samples were prepared at the same time as the samples and analyzed before and after the samples containing either HIV fusion inhibitor peptide or base sequence. Pharmacokinetic properties were calculated from the plasma concentration-time data using either mono-exponential or bi-exponential mathematical models. Models were derived by non-linear least squares optimization. A 1/C^2 weighting of concentrations was used. The following equations were used to calculate area-under the plasma concentration vs. time curve (AUC), total body clearance (Cl), and terminal elimination half-life (t ½).
Where A and B are intercepts and a and b are the rate constants of the exponential equations describing the distribution and elimination phases, respectively. When mono-exponential models were used, the “A” and “a” properties were eliminated.
Cl=Dose/AUC (expressed in L/K/hr)
t½=0.6903/b (expressed in hr)

[3] = Helicity by circular dichroism (CD); assay type: physicochemical; conditions: usually percent helicity at 10 μM, 25° C.
Procedure: (§3) Assessment of biophysical parameters included measurement of helicity and thermal stability. Helicity was assessed by circular dichroism (“CD”) as follows. Briefly, CD spectra were obtained using a spectrometer equipped with a thermoelectric temperature controller. The spectra was obtained at 25° C. with 0.5 nanometer (nm) steps from 200 to 260 nm, with a 1.5 nm bandwith, and a typical averaging time of 4 seconds/step. After the cell/buffer blank was subtracted, spectra were smoothed using a third-order least-squares polynomial fit with a conservative window size to give random residuals. Raw ellipticity values were converted to mean residue ellipticity using standard methods, and plotted was the wavelength (from 200 to 260 nm) versus [θ]×10−3 (degrees cm^2/dmol). Percent helicity values were then calculated using standard methods (usually expressed as percent helicity at 10 μM, 25° C.). Assessment of thermal stability was performed by monitoring the change in CD signal at 222 nm as temperature was raised in 2° C. steps, with 1 minute equilibration times. The stability for each sample (e.g., HIV fusion inhibitor peptide), as represented by the Tm value, is the temperature corresponding to the maximum value of the first derivative of the thermal transition.

[4] = Thermal stability (Tm) by CD signal at 222 nm; assay type: physicochemical; conditions: CD at 222 nm, maximum of first derivative of thermal transition
Procedure: as §3

[5] = Stability in aqueous solution (PBS), peptide remaining in solution by HPLC; assay type: physicochemical; conditions: 10 mg/ml in PBS, about pH 7.3 to 7.5, 37° C., time point of 1 week

For “Ac-TTWEAWDRAIAEYAARIEALLRALQEQQEKNEAALREL-NH2 [SEQ ID NO:9, TTWEAWDRAIAEYAARIEALLRALQEQQEKNEAALREL]”, the “Fold Change in IC50” value (584.000060; starting virus isolate 584.000060) was 26, the “Ending IC50” value (584.000060; starting virus isolate 584.000060, after selection) was 0.208 µg/mL and the “Starting IC50” value (584.000060; starting virus isolate 584.000060, before selection) was 0.008 µg/mL. For the same substance, the “Fold Change in IC50” value (584.000030; starting virus isolate 584.000030) was 4, the “Ending IC50” value (584.000030; starting virus isolate 584.000030, after selection) was 0.113 µg/mL and the “Starting IC50” value (584.000030; starting virus isolate 584.000030, before selection) was 0.028 µg/mL. The “Fold Change in IC50” value ([1]; Geometric Mean of four isolates) was 24, the “Ending IC50” value ([1]; Geometric Mean of four isolates, after selection) was 0.429 µg/mL and the “Starting IC50” value ([1]; Geometric Mean of four isolates, before selection) was 0.018 µg/mL. For the same substance, the “barrier to development of resistance in vitro, in words” value ([1]; compared to SEQ ID NO:2) was “higher barrier to development of resistance in vitro”, the “Fold Change in IC50” value (584.000098; starting virus isolate 584.000098) was 14 and the “Ending IC50” value (584.000098; starting virus isolate 584.000098, after selection) was 0.521 µg/mL. The “Starting IC50” value (584.000098; starting virus isolate 584.000098, before selection) was 0.037 µg/mL, the “Fold Change in IC50” value (IIIB) was 231 and the “Ending IC50” value (IIIB; after selection) was 2.768 µg/mL. The “Starting IC50” value (IIIB; before selection) was 0.012 µg/mL, the “Antiviral Activity (μg/ml) HIV-IIIB IC50” value (HIV-IIIB) was under 0.10 µg/mL and the “biological half-life relative to base sequence, in words” value ([2]; comment on Table 2) was “increased biological half-life”. The clearance ([2]; cynomolgus monkey, plasma, iv, dosed intravenously) was under 0.333 mL/min/kg, the half-life ([2]; cynomolgus monkey, plasma, iv, dosed intravenously, read-out: Half-life (t ½; hr) (converted)) was 12 h and the “Helicity (%)” value [3] was 61%. The “Tm (° C.)” value [4] was 62 °C and the “peptide remaining detectable in solution” value [5] was at least 90%.
